Literature values as cited in patent US11345666B2, “Phenyl and pyridinyl substituted imidazoles as modulators of RORγT” (Janssen Pharmaceutica NV, priority 2018, dated 2022).

System: Th17-dependent learned helplessness
Conditions: mice; cited from earlier work

In the case of `CC(=O)Nc1nc(C)c(S(=O)(=O)Nc2ccc(C(O)(C(F)(F)F)C(F)(F)F)cc2)s1` [SR1001], the Th17-dependent learned helplessness is given as “reduced”.
